Results reported in PubChem BioAssay AID504394 (Southern Research Specialized Biocontainment Screening …, 2011).
The source made the active and inactive calls. No rule for the calls is given here.

Each compound was assayed on host cell cytotoxicity, % cell control, 2% serum (assay: viability of cells used for CXCR4-tropic fusion test – fusion assay cells, 2% serum, TC50, cytotoxicity control for HIV-1 antiviral lead project, dose response (AID 504394)).

SMILES | TC50
Cc1c2c(=O)n(-c3nc4ccccc4s3)nc-2cc(O)n1Cc1ccc(F)cc1 | 59.9 µM
O=C(O)CCCN1C(=O)/C(=C/c2ccc(-c3cccc(C(F)(F)F)c3)o2)SC1=S | > 100 µM (inactive)
CCOC(=O)C1=C(C)N=c2sc(=Cc3ccc(OCC(=O)O)cc3)c(=O)n2C1c1ccccc1OC (configuration not stated) | > 100 µM (inactive)
O=C(O)CCCN1C(=O)/C(=C\c2ccc(-c3cccc(Cl)c3)o2)SC1=S | > 100 µM (inactive)
CCOc1ccc(-n2cccc2/C=C2/C(=N)N3C(=NC2=O)SN=C3S(C)(=O)=O)cc1 | 84.7 µM
Cc1c2c(=O)n(-c3nc4ccccc4s3)nc-2cc(O)n1Cc1ccccc1Cl | 38.1 µM
COc1ccc(-c2ccc(/C=C3\SC(=S)N(CCCC(=O)O)C3=O)o2)cc1 | 68.3 µM
O=C(O)CCCN1C(=O)/C(=C\c2ccc(-c3ccc(F)cc3)o2)SC1=S | 38.1 µM
Nc1sc2ccccc2[n+]1Cc1ccc(C(=O)O)cc1 | > 100 µM (inactive)
Cc1c2c(=O)n(-c3nc4ccccc4s3)nc-2cc(O)n1CCC(C)C | 68.5 µM
O=C(O)c1ccc([C@@H]2Nc3ccc(S(=O)(=O)Nc4cccc5ccccc45)cc3[C@@H]3C=CC[C@@H]32)cc1 | > 100 µM (inactive)
O=C(O)c1ccc(C[n+]2c(-c3ccccc3)csc2Nc2ccccc2)cc1 | > 100 µM (inactive)
COc1cccc(C2C(C(=O)Nc3ccccc3)=C(C)N=c3sc(=Cc4ccc(OCC(=O)O)cc4)c(=O)n32)c1 (configuration not stated) | > 100 µM (inactive)
Cc1c2c(=O)n(-c3nc4ccccc4s3)nc-2cc(O)n1Cc1ccncc1 | > 100 µM (inactive)
Cc1c2c(=O)n(-c3nc4ccccc4s3)nc-2cc(O)n1Cc1cccnc1 | > 100 µM (inactive)
Cc1c2c(=O)n(-c3nc4ccccc4s3)nc-2cc(O)n1C1CC1 | 83.9 µM
CCOC(=O)C1=C(C)N=c2sc(=Cc3ccc(OCC(=O)O)cc3)c(=O)n2C1c1ccccc1 (configuration not stated) | > 100 µM (inactive)
Cc1ccc(-n2cccc2/C=C2/C(=N)N3C(=NC2=O)SN=C3S(C)(=O)=O)cc1 | 66.5 µM
CCOC(=O)C1=C(c2ccccc2)N=c2s/c(=C\c3ccc(OCC(=O)O)cc3)c(=O)n2C1c1cccc(OC)c1 (configuration not stated) | 80.4 µM

SMILES | TC50
COc1ccc(CCn2c(O)cc3nn(-c4nc5ccccc5s4)c(=O)c-3c2C)cc1 | 63.2 µM
O=C(O)c1ccc(C[n+]2c(-c3ccc([N+](=O)[O-])cc3)csc2Nc2ccccc2)cc1 | > 100 µM (inactive)
CC1=C(C(=O)OC(C)C)C(c2ccc(Cl)cc2)n2c(s/c(=C\c3ccc(OCC(=O)O)cc3)c2=O)=N1 (configuration not stated) | > 100 µM (inactive)
CS(=O)(=O)C1=NSC2=NC(=O)/C(=C\c3cccn3-c3cccc(F)c3)C(=N)N21 | > 100 µM (inactive)
COc1cccc(-n2cccc2/C=C2/C(=N)N3C(=NC2=O)SN=C3S(C)(=O)=O)c1 | > 100 µM (inactive)
COc1ccc(Cn2c(O)cc3nn(-c4nc5ccccc5s4)c(=O)c-3c2C)cc1 | 61.8 µM
CS(=O)(=O)C1=NSC2=NC(=O)/C(=C\c3cccn3-c3ccc(F)cc3)C(=N)N21 | > 100 µM (inactive)
CS(=O)(=O)C1=NSC2=NC(=O)/C(=C\c3cccn3-c3ccc(Br)cc3)C(=N)N21 | 46.2 µM
Cc1c2c(=O)n(-c3nc4ccccc4s3)nc-2cc(O)n1CCc1cccs1 | > 100 µM (inactive)
CCOC(=O)C1=C(C)N=c2s/c(=C\c3ccc(OCC(=O)O)cc3)c(=O)n2C1c1ccc(OC)c(OCC)c1 (configuration not stated) | 78.4 µM
O=C(O)CCC(C(=O)O)N1C(=O)/C(=C\c2ccco2)SC1=S (configuration not stated) | > 100 µM (inactive)
Cc1ccc(-c2ccc(/C=C3\SC(=S)N(CCCC(=O)O)C3=O)o2)cc1 | > 100 µM (inactive)
CCOC(=O)C1=C(C)N=c2sc(=Cc3ccc(OCC(=O)O)cc3)c(=O)n2C1c1ccc(OC)cc1OC (configuration not stated) | > 100 µM (inactive)
O=C(O)CCCN1C(=O)/C(=C/c2ccc(-c3ccc(Cl)c(Cl)c3)o2)SC1=S | 12.4 µM
CS(=O)(=O)C1=NSC2=NC(=O)/C(=C\c3cccn3-c3cccc(C(F)(F)F)c3)C(=N)N21 | > 100 µM (inactive)
CCOC(=O)C1=C(C)N=c2sc(=Cc3ccc(OCC(=O)O)cc3)c(=O)n2C1c1ccc(F)cc1 (configuration not stated) | > 100 µM (inactive)
Cc1c2c(=O)n(-c3nc4ccccc4s3)nc-2cc(O)n1CCc1ccc(O)cc1 | 30 µM
CCOC(=O)C1=C(C)N=c2sc(=Cc3ccc(OCC(=O)O)cc3)c(=O)n2C1c1cc(OC)c(OC)c(OC)c1 (configuration not stated) | > 100 µM (inactive)
